Series [1] deals with A431 human epidermoid carcinoma cells. The series is described as follows: cells. The following applies: A-431, read-out: IC50 (nM) A431 Cell Autophosphorylation Assay. How it is done:
(§1) Extracts were made by lysing the monolayers in 0.2 mL of boiling Laemlli buffer (2% sodium dodecyl sulfate, 5% beta-mercaptoethanol, 10% glycerol and 50 mM tris[hydroxymethyl]aminomethane (Tris), pH 6.8), and the lysates were heated to 100° C. for 5 minutes. Proteins in the lysate were separated by polyacrylamide gel electrophoresis and electrophoretically transferred to nitrocellulose. The membrane was washed once in 10 mM Tris, pH 7.2, 150 mM NaCl, 0.01% Azide (TNA), and blocked overnight in TNA containing 5% bovine serum albumin and 1% ovalbumin. The membrane was blotted for 2 hours with antiphosphotyrosine antibody (UBI, 1 μg/mL in blocking buffer) and then washed twice in TNA, once in TNA containing 0.05% Tween-20 detergent and 0.05% nonidet P-40 detergent and twice in TNA. […] Band intensities were determined with a Molecular Dynamics laser densitometer.
Duplicate sets of cells were treated with a range of concentrations of the designated compound to be tested as an inhibitor for 15 minutes. The cells were then stimulated with 100 ng/mL of EGF for 5 minutes and extracts made as described under the Western Blotting Procedure.

The test system is the same in series [2]. Particulars: 2 μM compound for 1 or 2 hours, washed free, EGF stimulation. How it is done:
as §1

For series [3], the target named is Human EGF receptor tyrosine kinase (Homo sapiens, UniProt P00533). The following applies: read-out: IC50 (nM) EGFr (isolated enzyme assay); isolated enzyme from A431 cells; 10 μM ATP.
Chain of Human EGF receptor tyrosine kinase (P00533 25-1210): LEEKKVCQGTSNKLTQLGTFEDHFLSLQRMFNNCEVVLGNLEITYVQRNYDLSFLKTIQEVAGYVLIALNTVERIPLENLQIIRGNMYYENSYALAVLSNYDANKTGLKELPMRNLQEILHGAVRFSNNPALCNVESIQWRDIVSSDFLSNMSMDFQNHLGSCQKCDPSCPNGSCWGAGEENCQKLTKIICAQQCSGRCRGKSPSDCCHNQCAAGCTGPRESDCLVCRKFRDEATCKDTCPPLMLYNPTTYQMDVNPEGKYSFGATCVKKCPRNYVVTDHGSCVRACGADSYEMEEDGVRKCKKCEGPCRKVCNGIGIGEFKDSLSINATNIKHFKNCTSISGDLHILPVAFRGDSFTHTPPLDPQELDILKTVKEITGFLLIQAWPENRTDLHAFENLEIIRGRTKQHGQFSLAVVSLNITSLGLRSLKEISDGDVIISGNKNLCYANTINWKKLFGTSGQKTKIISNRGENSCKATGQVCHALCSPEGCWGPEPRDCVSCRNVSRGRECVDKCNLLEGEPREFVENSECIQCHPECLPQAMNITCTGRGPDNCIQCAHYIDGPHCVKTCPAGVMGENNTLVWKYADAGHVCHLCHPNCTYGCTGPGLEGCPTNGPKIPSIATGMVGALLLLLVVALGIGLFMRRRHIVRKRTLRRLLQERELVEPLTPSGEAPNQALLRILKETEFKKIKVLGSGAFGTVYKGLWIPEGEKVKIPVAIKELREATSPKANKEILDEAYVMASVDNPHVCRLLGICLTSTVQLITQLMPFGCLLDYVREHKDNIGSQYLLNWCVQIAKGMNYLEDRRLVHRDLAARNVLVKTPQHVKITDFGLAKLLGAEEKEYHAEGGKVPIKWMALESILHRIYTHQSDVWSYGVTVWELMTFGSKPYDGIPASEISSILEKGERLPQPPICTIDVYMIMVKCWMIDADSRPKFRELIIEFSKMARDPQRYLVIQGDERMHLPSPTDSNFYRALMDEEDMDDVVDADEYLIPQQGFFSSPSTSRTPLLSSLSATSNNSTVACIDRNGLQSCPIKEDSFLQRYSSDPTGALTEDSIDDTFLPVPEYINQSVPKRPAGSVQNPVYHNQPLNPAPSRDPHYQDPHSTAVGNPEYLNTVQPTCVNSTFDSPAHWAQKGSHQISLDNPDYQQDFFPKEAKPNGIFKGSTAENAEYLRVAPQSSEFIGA
Experimental: Human EGF receptor tyrosine kinase was isolated from A431 human epidermoid carcinoma cells by the following method. Cells were grown in roller bottles in dMEM/F12 media (Gibco/BRL) containing 10% fetal calf serum. Approximately 10^9 cells were lysed in 2 volumes of buffer containing 20mM N-[2-hydroxyethyl]piperazine-N′-[2-ethane sulfonic acid](Hepes), pH 7.4, 5 mM ethylene glycol-bis(β-aminoethyl ether) N,N,N′,N′-tetraacetic acid (EGTA), 1% Triton X-100, 10% glycerol, 0.1 mM sodium orthovanadate, 5 mM sodium fluoride, 4 mM pyrophosphate, 4 mM benzamide, 1 mM dithiothreitol (DTT), 80 μg/mL aprotinin, 40 μg/mL leupeptin, and 1 mM phenylmethyl sulfonyl fluoride (PMSF). After centrifugation at 25,000×g for 10 minutes, the supernatant was applied to a fast Q sepharose column (Pharmacia Biotech., Inc., Piscataway, N.J.) and eluted with a linear gradient from 0.1 M NaCl to 0.4 M NaCl in 50 mM Hepes, 10% glycerol, pH 7.4. Enzyme active fractions were pooled, divided into aliquots, and stored at −100° C.
Enzyme assays for IC50determinations were performed in 96-well filter plates (Millipore MADVN6550, Millipore, Bedford, Mass.). […] The wells are then washed 5 times with 0.2 mL of 10% TCA and ^32P incorporation determined with a Wallac beta plate counter (Wallac, Inc., Gaithersburg, Pa.).

Broadly, the IC50 is the point on the concentration scale where inhibition reaches its midpoint. The melting point is the temperature of the solid-liquid transition. With `C=CC(=O)Nc1ccc2ncnc(N3CCc4ccc(Br)cc43)c2c1` [Example 1, N-[4-(6-Bromo-2,3-dihydroindol-1-yl)quinazolin-6-yl]acrylamide], the melting point was 214 to 216 °C. The concentration for half-maximal inhibition (IC50) in series [1] worked out at 9.9 nM. In addition, the “Irreversibility Test” value in series [2] was “yes, irreversible”. Besides, the IC50 in series [3] was 0.4 nM.

The values are drawn from patent US20030087881A1, “Irreversible inhibitors of tyrosine kinases” (priority 1997, published 2003).
